Measurements published in patent publication US6682897B1, “Peptides derived from human heat protein 60 for treatment of diabetes, compositions, methods and kits” (Yeda Research and Development Co. Ltd., priority 1995, dated 2004).
Several values for one entry are separate records, joined by “and”; a condition that tells them apart may be missing. Equal values may be shown once. Marks after values point to notes of the source that are not given here.

Columns and labels:
[1] = tested on: NOD/Lt female mice; test: Treatment of NOD mice with peptides in IFA: diabetes and mortality (Example 2); format: in vivo; conditions: 100 μg peptide in IFA s.c., nine-week old NOD/Lt females; for Diabetes (%): persistent blood glucose over 11.1 mmol/l at 25 weeks of age
Experimental: (iv) Treatment and follow-up. Peptides, […], in PBS, were emulsified with an equal volume of IFA and injected subcutaneously into 10-week-old NOD females as described (Elias and Cohen, 1995). Control mice received an equal volume of PBS emulsified in IFA. The mice were monitored monthly for non-fasting blood glucose at 10am using the Blood Glucose Sensor (MediSense. Inc., Waltham, Mass.). […] Histological examination of the islets of the pancreas was done on sections stained with hematoxylin and eosin. The sections were scored independently by two observers who both were unaware of the identity of the groups. The chi square test was used to ascertain the statistical differences between the various treatments.
To test whether the p12 and p32 peptides can block the progression of diabetes as p277(Val^6-Val^11), the p277(Val6-Val^11), p12 or p32 peptides (100 μg in a 0.1 cc emulsion of IFA) were administered subcutaneously to groups of 10-12 nine-week old NOD/Lt female mice of the Jackson Laboratory, Bar-Harbor, Me. Diabetes, determined as persistent blood glucose levels over 11.1 mmol/l, was tested at 25 weeks of age. Control mice were untreated or were treated with p278.

[2] = tested on: draining popliteal lymph node lymphocytes; test: T-cell proliferation of draining lymph node cells of NOD mice immunized with hsp60 peptides in CFA (Example 1, FIG. 2); format: cell-based; conditions: NOD mice immunized with peptide emulsified in CFA in hind foot pads, assayed after 10 days
Experimental: (§1) (iii) T-Cell proliferation to peptides. Mice. Nine week old NOD mice or mice of other strains were immunized in the hind foot pads with 0.1 ml of an emulsion containing 25 μg peptide in complete Freund's adjuvant (CFA; Difco, Detroit, Mich.) mixed with an equal volume of phosphate-buffered saline (PBS). The draining popliteal lymph nodes were removed 10 days later and suspensions of lymphocytes in triplicate cultures were tested for proliferation in the presence of the various peptides (5 μg/ml) using the incorporation of [^3H]-thymidine as described (Elias et al., 1991).
The immunogenicity of the hsp60 peptides p12, p32, p277(Val^6-Val^11) and p278 in NOD mice was tested by immunizing the mice with the peptides emulsified in CFA in the hind foot pads, and assaying the proliferative responses of draining lymph node cells after 10 days as described above in section iii(a).

[3] = tested on: Peripheral mononuclear cells (PBMC) of IDDM patients; test: T-cell proliferative response of PBMC from newly diagnosed IDDM patients (Example 3); format: cell-based, human; conditions: for T-cell proliferative response (SI): antigen 10 μg/ml, 6 days, SI more than 2.0 positive
Experimental: To determine the T-cell responses to the various hsp60 peptides, lymphocytes from the peripheral blood of newly diagnosed (2 weeks-4 months) IDDM patients were tested in a proliferation assay. 10-20 ml of blood were removed into a sterile tube containing heparin as anti-coagulant and diluted in PBS 1:2. Peripheral mononuclear cells (PBMC) were isolated by centrifuging the blood over a lymphoprep layer. The PBMC were tested for proliferation in triplicates, in the presence of the various antigens (10 μg/ml) for 6 days using the incorporation of [^3H]-thymidine as a measure of proliferation. The antigens tested were human hsp60 or the hsp60 peptides p277(Val^6-Val^11), p12, p32 and control peptide p278. The T cell proliferative response is depicted as stimulation index (SI): The ratio between peptide-stimulated thymidine incorporation and background (no antigen added) thymidine incorporation by the T cells.

[4] = tested on: serum antibodies of the IgG1, IgG2a and IgG2b isotypes; test: Serum anti-peptide antibody isotypes by ELISA in peptide-treated NOD mice (FIG. 5); format: in vivo
Experimental: FIGS. 5A-5D show the IgG1, IgG2a and IgG2b antibody isotypes in response to peptide treatment. Mice were treated as described in the legend to FIG. 4. Individual samples were analyzed for antibodies to mouse p12 A; p277 B; GAD-p35 C; and MT-p278 D, of the IgG1, IgG2a and IgG2b isotypes. Similar effects were obtained in two experiments. The results are presented as the absorbance at 405 nm (OD) of 10 individual mice in each group. The level of significance of the prevalence of IgG1 and IgG2b antibodies in groups A and B compared to C and D is P<0.001. The differences between the levels of IgG1 and IgG2b antibodies compared to the IgG2a antibodies in groups A and B were significant (P<0.001). There was no cross-reactivity between the antibodies (not shown).
(v) Serum Antibodies. Mice were bled monthly to detect antibody responses. The ELISA assay was done as described (Elias et al., 1991). Briefly, flat bottom Maxi-sorb plates (Nunc, Roskilde, Denmark) were coated, for the detection of anti-peptide antibodies, with […] of peptide in PBS, at a concentration of […] for 2 h at room temperature followed by over night incubation at 4° C. After incubation with peptide, the plates were washed and blocked for 2 h at 37° C. with 7% BSA (Sigma) in PBS. Sera were diluted 1:50 then added for 2 h at 37° C., followed by incubation for 2 h with […] of goat anti-mouse IgG (gamma chain Fc specific) conjugated to alkaline phosphatase (Jackson, Philadelphia, Pa.). After washing, the plates were incubated with the substrate, diethanolamine (Sigma) and read using an ELISA reader at 405 nm.
Successful treatment of STZ-induced diabetes with mouse peptide p277 was associated with the appearance of anti-peptide antibodies predominantly of the IgG1 and IgG2b isotypes (Elias and Cohen, 1996). The peptide-treated NOD mice for their serum antibodies was therefore examined. […] Thus, effectiveness in inhibiting diabetes was associated with the induction of an antibody response mainly of the IgG1 and IgG2b isotypes.

[5] = tested on: female NOD mice; test: Peptide treatment of 10-week old NOD mice, development of diabetes (Example 4, FIG. 4); format: in vivo; conditions: single s.c. injection in IFA at 10 weeks, observed through 8 months of age, vs IFA alone
Experimental: FIG. 4 is a graph showing the effect of peptide administration on diabetes. Groups of 10-20 NOD mice were treated at 10 weeks of age with 100 μg of mouse p12, p277, p35-GAD or MT-p278 in IFA, or IFA alone. The mice were bled monthly and followed for the onset of hyperglycemia.
(iv) Treatment and follow-up. Peptides, […], in PBS, were emulsified with an equal volume of IFA and injected subcutaneously into 10-week-old NOD females as described (Elias and Cohen, 1995). Control mice received an equal volume of PBS emulsified in IFA. The mice were monitored monthly for non-fasting blood glucose at 10am using the Blood Glucose Sensor (MediSense. Inc., Waltham, Mass.). Mice with a blood glucose greater than 11.1 mmol/L were considered to be diabetic; this concentration of glucose was greater than 3 standard deviations above the mean blood glucose concentration measured in non-diabetic mice (Elias and Cohen, 1995). Histological examination of the islets of the pancreas was done on sections stained with hematoxylin and eosin. The sections were scored independently by two observers who both were unaware of the identity of the groups. The chi square test was used to ascertain the statistical differences between the various treatments.
Following a protocol shown to be effective with mouse p277(Elias et al., 1991; Elias and Cohen, 1994; Elias and Cohen, 1995), groups of 10-week old female NOD mice were treatedby a single subcutaneous injection of each peptide ([…]) emulsified in IFA.

[6] = tested on: draining lymph nodes; test: T-cell proliferative responses of NOD mice to peptides (Example 4, FIG. 3); format: cell-based; conditions: NOD mice immunized with 25 μg peptide in IFA, lymph nodes 10 days later, 20 μg/ml
Experimental: FIG. 3 is a graph showing T-cell proliferative responses of NOD mice to peptides. Groups of three NOD mice were […] with peptides mouse p12, mouse p277, GAD-p35 and MT-p278 in IFA each at a dose of 25 μg in IFA. The draining lymph nodes were removed 10 days later and assayed for proliferative responses to the corresponding peptide at the concentrations of 5, 10, 20, and 50 μg/ml. The stimulation at the optimal concentration of 20 μg/ml is shown. The following ranges of cpm were obtained in medium controls: mouse p12, 881; mouse p277, 1243; MT-p278, 698 and GAD-p35 1430. Peptide mouse p38 is a peptide derived from mouse hsp60 (556-573), which has no sequence homology with the tested peptides and serves as a negative control of specificity. […] Each assay was done in triplicates for which the SD values are indicated by the bars. There was no cross-reactivity between the peptides (not shown).
as §1, with “1991). The results are shown as the stimulation index (SI): the ratio of the mean cpm in the presence of the test peptide to the mean cpm of control cultures without the peptide. Standard errors were always less than 10% of the means.” for “1991).”
Spontaneous T cell responses in pre-diabetic NOD mice were detected to the mouse p277 peptide (Elias et al., 1991; Birk et al., 1996) and to larger fragments of the mouse hsp60 molecule that contained the mouse p277 sequence (Birk et al., 1996). […] Other peptides immunogenic for NOD mice are the MT-p278 peptide (residues 458-474 in the Mycobacterial hsp60 molecule), and GAD-p35 (residues 524-543 in the GAD65 molecule).

[7] = compared with p277; cited from earlier work

Substance: EEIAQVATISANGDKEIGNI [p12]
- Mortality (%) [1]: 10* %
- therapeutic effect in treatment of diabetes [1]: effective in treatment of diabetes
- Diabetes (%) [1]: 20%
- immunogenicity (proliferative responses of draining lymph node cells) [2]: strongly immunogenic

Substance: EIIKRTLKIPAMTIAKNAGV [p32]
- Mortality (%) [1]: 25* %
- therapeutic effect in treatment of diabetes [1]: effective in treatment of diabetes
- Diabetes (%) [1]: 30% and 50* %
- immunogenicity (proliferative responses of draining lymph node cells) [2]: strongly immunogenic

Substance: NEDQKIGIEIIKRTLKI [p278, human hsp60 residues 458-474; control peptide]
- T-cell proliferative response (SI) ([3]; Patient 1): 0.5
- T-cell proliferative response (SI) ([3]; Patient 2): 0.8
- T-cell proliferative response (SI) ([3]; Patient 3): 0.7
- T-cell proliferative response (SI) ([3]; Patient 4): 0.9
- Mortality (%) [1]: 45%
- therapeutic effect in treatment of diabetes [1]: no therapeutic effect
- Diabetes (%) [1]: 90%
- immunogenicity (proliferative responses of draining lymph node cells) [2]: non-immunogenic

Substance: SRLSKVAPVIKARMMEYGTT [GAD-p35, peptide from the GAD65 molecule (524-543)]
- mice that made specific IgG1 antibodies ([4]; 10 individual mice per group, ELISA): none
- titers of IgG2b antibodies ([4]; compared with mouse p12 and mouse p277 groups): significantly lower titers
- antibody titers of the IgG1 and IgG2b isotypes ([4]; peptide-treated NOD mice, sera diluted 1:50, ELISA): did not respond as strongly
- development of diabetes [5]: no different than was treatment with IFA alone
- immunogenicity (T-cell proliferative response) [6]: immunogenic, but less so

Substance: hsp60: human 60 KDa heat shock protein (SEQ ID NO:1)
- T-cell proliferative response (SI) ([3]; Patient 1): 5.6
- T-cell proliferative response (SI) ([3]; Patient 2): 7.5
- T-cell proliferative response (SI) ([3]; Patient 3): 8.0
- T-cell proliferative response (SI) ([3]; Patient 4): 3.4
- T-cell proliferative response (SI) ([3]; Patient 5): 1.2
- T-cell proliferative response (SI) ([3]; Patient 6): 6.7
- T-cell proliferative response (SI) ([3]; Patient 7): 10.3
- T-cell proliferative response (SI) ([3]; Patient 8): 1.3
- patients that responded ([3]; of 8 newly diagnosed IDDM patients, SI more than 2.0): 6/8

Substance: p277(Val^6): p277 variant with cysteine at position 6 replaced by valine (VLGGGVALLRCIPALDSLTPANED; p277 peptide (437-460); UniProt P10809 437-460, looked up, variant C442V)
- activity in the treatment of diabetes [7]: as active as p277

Substance: p277(Val^11): p277 variant with cysteine at position 11 replaced by valine (VLGGGCALLRVIPALDSLTPANED; p277 peptide (437-460); UniProt P10809 437-460, looked up, variant C447V)
- activity in the treatment of diabetes [7]: as active as p277
